In patent publication US9018218B2 (priority 2010, dated 2015):
Where two headings read alike, the source gives them in different places.

Experiments:
[1] = system: wheat rust; details: in vivo
[2] = system: cucumber downy mildew; experiment: fungicidal activity in vivo, cucumber downy mildew on cucumber seedling leaves; details: spray, investigated after 5 days
Description: (§1) The procedure of determination of fungicidal activity in vivo is as follow:
The compounds of the present invention were diluted to given concentrations and sprayed on the leaves of cucumber seedling at the same stage, on which growing point were cut off and two euphyllas were kept meanwhile, water were set as the blank control, three replicates were set for each treatment. Cucumber downy mildew spore suspension were inoculated on the second day after treatment, then, the plants were placed in a chamber (temperature: day 25° C., and night 20° C., relative humidity 95 to 100%), and then placed in greenhouse (25±2° C.) 24 hours later and routine management was conducted. The test results were investigated after 5 days, disease grading refers to the national standard of the People's Republic of China [The test criteria of pesticide field trial], the control effect was calculated by disease index.

[3] = system: wheat powdery mildew; experiment: fungicidal activity in vivo, wheat powdery mildew on wheat seedling leaves; details: spray, investigated after 7 days
Description: as §1
The compounds of the present invention were diluted to given concentrations and sprayed on the leaves of wheat seedling at the same two-leaf stage, meanwhile, water were set as the blank control, three replicates were set for each treatment. Wheat powdery mildew spore suspension were inoculated on the second day after treatment, and then placed in greenhouse (25±2° C.) and routine management was conducted. The test results were investigated after 7 days, disease grading refers to the national standard of the People's Republic of China [The test criteria of pesticide field trial], the control effect was calculated by disease index.

[4] = system: rice blast; experiment: microbe, parasite or virus in culture; format: cell-based; details: for rice blast inhibition rate %: in vitro spore germination; for inhibition at 2.8 µg/mL / inhibition at 8.3 µg/mL / inhibition at 25 µg/mL: Pyricularia oryzae, read-out: rice blast inhibition rate %
[5] = 400 mg/L, spray, investigated after 7 days
[6] = 100 mg/L, spray, investigated after 7 days

In the case of `CCCCc1c(C)nc(Nc2ccc(OC(F)(F)F)cc2)nc1OC(=O)OC` [Compound 13], the “wheat rust control %” value [1, 5] is reported as 0%, the “cucumber downy mildew control %” value ([2]; 400 mg/L) is reported as 30% and the “wheat powdery mildew control %” value ([3]; 400 mg/L) is reported as 95%.
With `Cc1cc(OC(=O)OC(C)C)nc(Nc2ccccc2)n1` [Compound 270] the “rice blast inhibition rate %” value ([4]; 8.3 mg/L) was 0%, the “rice blast inhibition rate %” value ([4]; 25 mg/L) was 100% and the “wheat rust control %” value [1, 5] was 60%. For the same compound, the “cucumber downy mildew control %” value ([2]; 400 mg/L) was 0% and the “wheat powdery mildew control %” value ([3]; 400 mg/L) was 0%.
In the case of `CCCCc1c(C)nc(Nc2ccc(OC(F)(F)F)cc2)nc1OC(=O)OC(C)C` [Compound 53], the “rice blast inhibition rate %” value ([4]; 25 mg/L) is reported as 50%, the “wheat rust control %” value [1, 5] is reported as 0% and the “cucumber downy mildew control %” value ([2]; 400 mg/L) is reported as 95%. For the same compound, the “wheat powdery mildew control %” value ([3]; 400 mg/L) was 50%.
For `CC(C)OC(=O)Oc1nc(Nc2ccccc2)nc2c1CCCC2` [Compound 427], the “rice blast inhibition rate %” value ([4]; 8.3 mg/L) was 80%, the “rice blast inhibition rate %” value ([4]; 25 mg/L) was 100% and the “wheat rust control %” value [1, 5] was 98%. The “cucumber downy mildew control %” value ([2]; 400 mg/L) was 0% and the “wheat powdery mildew control %” value ([3]; 400 mg/L) was 0%.
For `CCCCc1c(C)nc(Nc2ccccc2)nc1OC(=O)OC(C)C` [Compound 46], the “rice blast inhibition rate %” value ([4]; 2.8 mg/L) was 80%, the “rice blast inhibition rate %” value ([4]; 8.3 mg/L) was 100% and the “rice blast inhibition rate %” value ([4]; 25 mg/L) was 100%. For the same compound, the “wheat rust control %” value [1, 6] was 0%, the “wheat rust control %” value [1, 5] was 100% and the “cucumber downy mildew control %” value ([2]; 100 mg/L) was 10%. For the same compound, the “cucumber downy mildew control %” value ([2]; 400 mg/L) was 95%, the “wheat powdery mildew control %” value ([3]; 50 mg/L) was 98% and the “wheat powdery mildew control %” value ([3]; 100 mg/L) was 100%. For the same compound, the “wheat powdery mildew control %” value ([3]; 400 mg/L) was 100%.
Work on `CCCCc1c(C)nc(N(C)C)nc1OC(=O)OCC` [Compound K1, reference compound] yielded an inhibition at 2.8 µg/mL [4] of 0%, an inhibition at 8.3 µg/mL [4] of 80% and an inhibition at 25 µg/mL [4] of 100%. The “wheat rust control %” value [1] was 0%, the “cucumber downy mildew control %” value ([2]; 400 mg/L) was 0% and the “wheat powdery mildew control %” value ([3]; 100 mg/L) was 0%. For the same compound, the “wheat powdery mildew control %” value ([3]; 400 mg/L) was 100%.
`CC(C)OC(=O)Oc1nc(Nc2ccccc2)nc2c1CCC2` [Compound 393] showed an inhibition at 2.8 µg/mL [4] of 0%, an inhibition at 8.3 µg/mL [4] of 80% and an inhibition at 25 µg/mL [4] of 100%. The melting point was 124 to 126 °C, the “wheat rust control %” value [1] was 70% and the “cucumber downy mildew control %” value ([2]; 400 mg/L) was 0%. The “wheat powdery mildew control %” value ([3]; 400 mg/L) was 0%.
With `CCCCc1c(C)nc(Nc2ccccc2)nc1OC(=O)OC(C)c1ccccc1` (stereo not drawn) [Compound 173] the “rice blast inhibition rate %” value ([4]; 25 mg/L) was 50%, the “wheat rust control %” value [1, 5] was 0% and the “cucumber downy mildew control %” value ([2]; 400 mg/L) was 50%. The “wheat powdery mildew control %” value ([3]; 100 mg/L) was 80% and the “wheat powdery mildew control %” value ([3]; 400 mg/L) was 100%.
For `CCCCOC(=O)Oc1nc(Nc2ccccc2)nc(C)c1CCCC` [Compound 101], the “rice blast inhibition rate %” value ([4]; 25 mg/L) was 50%, the “wheat rust control %” value [1, 6] was 0% and the “wheat rust control %” value [1, 5] was 98%. The “cucumber downy mildew control %” value ([2]; 400 mg/L) was 70%, the “wheat powdery mildew control %” value ([3]; 50 mg/L) was 70% and the “wheat powdery mildew control %” value ([3]; 100 mg/L) was 95%. The “wheat powdery mildew control %” value ([3]; 400 mg/L) was 100%.
With `Cc1nc(Nc2ccccc2)nc(OC(=O)OC(C)C)c1C` [Compound 253] the “rice blast inhibition rate %” value ([4]; 2.8 mg/L) was 50%, the “rice blast inhibition rate %” value ([4]; 8.3 mg/L) was 80% and the “rice blast inhibition rate %” value ([4]; 25 mg/L) was 100%. For the same compound, the “wheat rust control %” value [1, 5] was 95%, the “cucumber downy mildew control %” value ([2]; 400 mg/L) was 20% and the “wheat powdery mildew control %” value ([3]; 400 mg/L) was 0%.
For `CCCCc1c(C)nc(Nc2ccccc2)nc1OC(=O)OCc1ccccc1` [Compound 156], the inhibition at 25 µg/mL [4] was 80%, the “wheat rust control %” value [1] was 0% and the “cucumber downy mildew control %” value ([2]; 400 mg/L) was 30%. For the same compound, the “wheat powdery mildew control %” value ([3]; 100 mg/L) was 80% and the “wheat powdery mildew control %” value ([3]; 400 mg/L) was 100%.
In the case of `CCCCc1c(C)nc(Nc2ccccc2)nc1OC(=O)OC` [Compound 1], the “cucumber downy mildew control %” value ([2]; 50 mg/L) is reported as 0%, the “cucumber downy mildew control %” value ([2]; 100 mg/L) is reported as 20% and the “cucumber downy mildew control %” value ([2]; 400 mg/L) is reported as 95%. The “wheat powdery mildew control %” value ([3]; 50 mg/L) was 98%, the “wheat powdery mildew control %” value ([3]; 100 mg/L) was 100% and the “wheat powdery mildew control %” value ([3]; 400 mg/L) was 100%.
For `COC(=O)Oc1cc(C2CC2)nc(Nc2ccccc2)n1` [Compound K2, reference compound], the inhibition at 25 µg/mL [4] was 80%, the “wheat rust control %” value [1] was 0% and the “cucumber downy mildew control %” value ([2]; 400 mg/L) was 0%. For the same compound, the “wheat powdery mildew control %” value ([3]; 400 mg/L) was 0%.
Compound `CC(C)OC(=O)Oc1nc(Nc2ccc(F)c(F)c2F)nc2c1CCCC2` [Compound 443] has an inhibition at 2.8 µg/mL [4] of 50%, an inhibition at 8.3 µg/mL [4] of 100% and an inhibition at 25 µg/mL [4] of 100%. The melting point was 124 to 126 °C, the “wheat rust control %” value [1] was 0% and the “cucumber downy mildew control %” value ([2]; 400 mg/L) was 90%. The “wheat powdery mildew control %” value ([3]; 400 mg/L) was 0%.
In the case of `CCCCc1c(C)nc(Nc2ccccc2)nc1OC(=O)OCC` [Compound 75], the “rice blast inhibition rate %” value ([4]; 25 mg/L) is reported as 50%, the “wheat rust control %” value ([1]; 50 mg/L, spray, investigated after 7 days) is reported as 30% and the “wheat rust control %” value [1, 6] is reported as 60%. For the same compound, the “wheat rust control %” value [1, 5] was 98%, the “cucumber downy mildew control %” value ([2]; 100 mg/L) was 30% and the “cucumber downy mildew control %” value ([2]; 400 mg/L) was 95%. The “wheat powdery mildew control %” value ([3]; 50 mg/L) was 50%, the “wheat powdery mildew control %” value ([3]; 100 mg/L) was 98% and the “wheat powdery mildew control %” value ([3]; 400 mg/L) was 95%.
